Laboratory results: publication PMC7824300, “Expanding the Structural Diversity of DNA Methyltransferase Inhibitors” (Pharmaceuticals, 2020)
Read-outs that look alike come from different tables or passages of the source.

Assays:
DNMT1 = target: T1, DNMT1 (Homo sapiens, UniProt P26358); assay: HotSpot radioisotope methyltransferase assay, DNMT1 (Poly dI-dC substrate); format: biochemical; conditions: for inhibition at 100 µM / relative enzymatic activity of DNMT1 / inhibition of DNMT1: 100 μM compound; for relative enzymatic activity of DNMT1: mean of two measurements ± SD; for inhibition of DNMT1: 100 µM
T1 construct: purchased Reaction Biology Corporation (contract screening service)
Protocol: First, the 10 compounds were tested at a single concentration (100 μM) in duplicate in a biochemical DNMT assay. […] Predicted binding modes for the five compounds were studied using molecular docking, implementing a novel re-scoring algorithm recently developed.
The inhibition of the enzymatic activity of DNMT1, DNMT3B, and DNMT3B/3L was tested using the HotSpot^SM platform for methyltransferase assays available at Reaction Biology Corporation. HotSpot^SM is a low volume radioisotope-based assay that uses tritium-labeled AdoMet (^3H-SAM) as a methyl donor. The test compounds diluted in dimethyl sulfoxide were added using acoustic technology (Echo550, Labcyte) into enzyme/substrate mixture in the nano-liter range. The corresponding reactions were commenced by the addition of ^3H-SAM and incubated at 30°C. Total final methylations on the substrate (Poly dI-dC in DNMT1 assay, and Lambda DNA in DNMT3B; DNMT3B/3L assay) were identified by a filter binding method implemented in Reaction Biology. Data analysis was conducted with Graphed Prism software (La Jolla, CA, USA) for curve fits. Reactions were carried out at 1 μM of SAM. […] The 10 compounds were tested first with DNMT1 and DNMT3B at one 100 μM concentration in duplicate. […] Theaflavin was also tested with DNMT3B and DNMT3B/L in 10-dose IC50 with threefold serial dilution starting at 100 μM.

DNMT3B = target: T2, DNMT3B (Homo sapiens, UniProt Q9UBC3); assay: HotSpot radioisotope methyltransferase assay, DNMT3B (Lambda DNA substrate); format: biochemical; conditions: for relative enzymatic activity of DNMT3B: mean of two measurements ± SD, 1 μM SAM
T2 construct: purchased Reaction Biology Corporation (contract screening service)
Protocol: First, the 10 compounds were tested at a single concentration (100 μM) in duplicate in a biochemical DNMT assay. SAH was used as a reference. […] Predicted binding modes for the five compounds were studied using molecular docking, implementing a novel re-scoring algorithm recently developed.
(§1) The inhibition of the enzymatic activity of DNMT1, DNMT3B, and DNMT3B/3L was tested using the HotSpot^SM platform for methyltransferase assays available at Reaction Biology Corporation. HotSpot^SM is a low volume radioisotope-based assay that uses tritium-labeled AdoMet (^3H-SAM) as a methyl donor. The test compounds diluted in dimethyl sulfoxide were added using acoustic technology (Echo550, Labcyte) into enzyme/substrate mixture in the nano-liter range. The corresponding reactions were commenced by the addition of ^3H-SAM and incubated at 30°C. Total final methylations on the substrate (Poly dI-dC in DNMT1 assay, and Lambda DNA in DNMT3B; DNMT3B/3L assay) were identified by a filter binding method implemented in Reaction Biology. Data analysis was conducted with Graphed Prism software (La Jolla, CA, USA) for curve fits. Reactions were carried out at 1 μM of SAM. In all assays, SAH was used as a standard positive control. The 10 compounds were tested first with DNMT1 and DNMT3B at one 100 μM concentration in duplicate. […] Theaflavin was also tested with DNMT3B and DNMT3B/L in 10-dose IC50 with threefold serial dilution starting at 100 μM. The authors have previously contracted the screening services of Reaction Biology Corporation to identify a novel inhibitor of DNMT1 [24].

DNMT3B/3L = target: T3, DNMT3B/3L (Homo sapiens, UniProt Q9UBC3); assay: HotSpot radioisotope methyltransferase assay, DNMT3B/3L (Lambda DNA substrate); format: biochemical; conditions: 10-dose, threefold serial dilution starting at 100 μM
T3 construct: purchased Reaction Biology Corporation (contract screening service)
Protocol: as §1

Hut78 cell line = conditions: read-out: IC50 for Hut78 cell line; cutaneous T cell lymphoma; cited from earlier work
U373MG cell line = conditions: read-out: IC50 for U373MG cell line; human glioblastoma cell line harboring inactive mutant p53; cited from earlier work
A549 cell line = conditions: read-out: IC50 for A549 cell line; human lung cancer cell line harboring wild-type p53; cited from earlier work
[1] = target: viral NS5 RNA methyltransferase; design: method as in PMID 20108931; conditions: cited from earlier work
[2] = target: viral NS5 RNA methyltransferase; design: method as in PMID 20108931; conditions: cited from earlier work; remark: listed apart in the source
[3] = Table 3, read-out: % Inhibition (DNMT1)
[4] = rounded values, read-out: inhibition of DNMT1
[5] = 10-dose, threefold serial dilution starting at 100 μM, 1 μM SAM, mean of two measurements, read-out: DNMT1 IC50
[6] = 100 μM compound, rounded values

T1 sequence (P26358 whole entry): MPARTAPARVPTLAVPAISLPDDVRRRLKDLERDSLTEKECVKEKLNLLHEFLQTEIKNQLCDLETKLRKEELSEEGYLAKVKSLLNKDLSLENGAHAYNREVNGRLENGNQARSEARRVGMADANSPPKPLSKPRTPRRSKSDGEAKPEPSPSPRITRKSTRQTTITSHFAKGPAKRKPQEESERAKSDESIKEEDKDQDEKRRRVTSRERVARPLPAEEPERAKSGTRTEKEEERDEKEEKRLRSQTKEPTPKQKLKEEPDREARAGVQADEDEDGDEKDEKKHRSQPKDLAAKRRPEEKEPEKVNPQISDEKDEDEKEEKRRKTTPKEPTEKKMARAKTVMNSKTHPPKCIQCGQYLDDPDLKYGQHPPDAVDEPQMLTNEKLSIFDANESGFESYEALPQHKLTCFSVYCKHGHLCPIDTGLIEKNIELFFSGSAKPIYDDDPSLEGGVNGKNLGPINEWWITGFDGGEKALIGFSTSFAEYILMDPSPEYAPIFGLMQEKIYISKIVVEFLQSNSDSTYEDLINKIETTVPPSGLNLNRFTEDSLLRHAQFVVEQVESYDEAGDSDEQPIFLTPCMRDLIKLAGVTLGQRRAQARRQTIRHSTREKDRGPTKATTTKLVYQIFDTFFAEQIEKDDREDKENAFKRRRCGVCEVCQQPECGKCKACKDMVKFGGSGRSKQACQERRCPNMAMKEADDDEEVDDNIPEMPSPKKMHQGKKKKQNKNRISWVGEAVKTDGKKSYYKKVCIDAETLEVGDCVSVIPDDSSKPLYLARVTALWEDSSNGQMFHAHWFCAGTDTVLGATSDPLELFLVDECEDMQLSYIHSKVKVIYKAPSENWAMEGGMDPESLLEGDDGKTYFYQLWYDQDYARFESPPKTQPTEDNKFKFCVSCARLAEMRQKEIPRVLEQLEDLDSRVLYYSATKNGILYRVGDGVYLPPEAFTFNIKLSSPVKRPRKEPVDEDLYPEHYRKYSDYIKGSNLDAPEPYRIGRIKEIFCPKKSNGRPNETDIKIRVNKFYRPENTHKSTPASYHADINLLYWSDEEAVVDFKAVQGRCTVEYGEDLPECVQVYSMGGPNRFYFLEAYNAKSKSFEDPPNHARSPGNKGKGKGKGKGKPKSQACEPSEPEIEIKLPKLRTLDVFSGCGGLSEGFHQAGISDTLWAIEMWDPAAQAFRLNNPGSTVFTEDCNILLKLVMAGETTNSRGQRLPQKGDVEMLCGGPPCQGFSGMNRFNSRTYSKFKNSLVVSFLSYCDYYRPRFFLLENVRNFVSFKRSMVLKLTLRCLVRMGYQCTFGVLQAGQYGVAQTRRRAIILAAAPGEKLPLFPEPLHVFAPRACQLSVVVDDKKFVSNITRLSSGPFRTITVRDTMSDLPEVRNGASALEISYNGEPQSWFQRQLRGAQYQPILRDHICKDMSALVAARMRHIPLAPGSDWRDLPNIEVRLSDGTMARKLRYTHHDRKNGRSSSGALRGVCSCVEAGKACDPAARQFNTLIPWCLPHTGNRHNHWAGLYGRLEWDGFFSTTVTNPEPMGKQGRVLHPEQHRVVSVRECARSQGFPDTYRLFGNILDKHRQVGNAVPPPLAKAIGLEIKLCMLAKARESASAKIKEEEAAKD

Structure (SMILES)	inhibition at 100 µM (DNMT1; [3]) [%]	relative enzymatic activity of DNMT1 (DNMT1; 1 μM SAM)	inhibition at 100 µM (DNMT1; [4]) [%]	relative enzymatic activity of DNMT3B (DNMT3B; 100 μM compound)	IC50 (DNMT1; [5]) [µM]	other results
Cc1cc(NC(=O)CN2CCN(c3cc(C(N)=O)c4ccccc4n3)CC2)no1 [CSC027480404]	30	70.63 (±0.19) %	29	96.39 (±0.28) %	–	inhibition of DNMT1 (DNMT1; rounded values): 30%
O=c1c(O)cc([C@H]2Oc3cc(O)cc(O)c3C[C@H]2O)cc2c([C@H]3Oc4cc(O)cc(O)c4C[C@H]3O)cc(O)c(O)c12 [Theaflavin]	65.4	34.62 (±0.06) %	65	66.75 (±1.11) %	85.3	inhibition at 100 µM (DNMT3B; [6]): 33%; IC50 (DNMT3B; 10-dose, threefold serial dilution starting at 100 μM): > 100 µM; IC50 (DNMT3B/3L): > 100 µM
O=C(O)c1ccc(NS(=O)(=O)c2ccc(N3CCCC3=O)cc2)cc1 [CSC027083851]	-5.71	105.71 (±1.27) %	–	97.85 (±5.66) %	–	–
Cc1ccnc2nc(C(=O)Nc3nc(-c4ccc5c(c4)OCO5)cs3)nn12 [CSC026286840]	26.6	73.45 (±3.06) %	27	90.59 (±2.49) %	–	inhibition of DNMT1 (DNMT1; rounded values): 30%
Cc1cc(NCc2nnc(Cc3ccccc3)o2)ccc1C(N)=O [CSC027694519]	64.6	35.42 (±1.78) %	65	97.42 (±2.49) %	85.1	–
CC(C)(CC(=O)Nc1cccc(Cn2cccn2)c1)C(=O)O [CSC027796832]	-7.25	107.25 (±0.59) %	–	95.28 (±0.47) %	–	–
COc1ccc(Cl)cc1C(=O)NCCc1ccc(S(=O)(=O)NC(=O)NC2CCCCC2)cc1 [Glyburide, reference compound]	60	40.04 (±0.78) %	60	95.97 (±4.76) %	55.9	–
COc1ccc(S(=O)(=O)Nc2c(C)n(C)n(-c3ccccc3)c2=O)cc1C(=O)O [compound 6631802]	6.74	93.26 (±7.97) %	–	93.54 (±0.54) %	–	–
Cc1[nH]c2ccccc2c1CCNCc1ccc(/C=C/C(=O)NO)cc1 [Panobinostat, reference compound]	62.7	–	63	–	–	–
NNc1nncc2ccccc12 [Hydralazine]	–	–	–	–	–	IC50 (Hut78 cell line): 30 µM; IC50 (U373MG cell line): 20 µM; IC50 (A549 cell line): 2 µM
Cc1ccc(Cl)cc1NS(=O)(=O)c1ccc(NS(=O)(=O)c2ccc3ccccc3c2)cc1 [compound 7936171]	62.3	37.74 (±2.15) %	62	78.20 (±0.30) %	78.5	EC50 [1]: 12 µM; IC50 (DNMT1; -log value of the IC50, read-out: pIC50 (DNMT1) (converted)): 77.6 µM; inhibition at 100 µM (DNMT3B; [6]): 22%; inhibition of DNMT3B (DNMT3B; 100 μM compound, rounded values, listed as naphthalene sulfonamide, 100 µM): higher than 20%; IC50 [2]: 64.2 µM
